From paper PMC12472322, “Structure–Activity Relationship Study of 3-Alkynyl-6-aryl-isothiazolo[4,3-b]pyridines as Dual Inhibitors of the Lipid Kinases PIKfyve and PIP4K2C” (Pharmaceuticals, 2025)

Key:
PIKfyve = molecular target: T1, PIKfyve (Homo sapiens, UniProt Q9Y2I7); experiment: biochemical PIKfyve mobility shift assay (Nanosyn)
T1 construct: purchased Nanosyn, Santa Clara, CA, USA (contract assay service)

[1] = cell viability (AlamarBlue) in SARS-CoV-2-infected Vero E6/TMPRSS2 cells; assay type: cell-based; conditions: African green monkey, Vero E6/TMPRSS2 cells infected with SARS-CoV-2, half-maximal cytotoxic concentration, read-out: SARS-CoV2 CC50
VEEV (TC-83) = experiment: microbe, parasite or virus in culture; assay type: cell-based; conditions: Venezuelan equine encephalitis virus, U-87 MG, 18 h, read-out: VEEV (TC-83) EC50
SARS-CoV-2 = experiment: microbe, parasite or virus in culture; assay type: cell-based, severe acute respiratory syndrome coronavirus 2; conditions: Severe acute respiratory syndrome coronavirus 2, VeroE6/TMPRSS2, 24 h; read-out: SARS-CoV2 EC50
U-87 MG cells = conditions: half-maximal cytotoxic concentration

T1 sequence (Q9Y2I7 whole entry): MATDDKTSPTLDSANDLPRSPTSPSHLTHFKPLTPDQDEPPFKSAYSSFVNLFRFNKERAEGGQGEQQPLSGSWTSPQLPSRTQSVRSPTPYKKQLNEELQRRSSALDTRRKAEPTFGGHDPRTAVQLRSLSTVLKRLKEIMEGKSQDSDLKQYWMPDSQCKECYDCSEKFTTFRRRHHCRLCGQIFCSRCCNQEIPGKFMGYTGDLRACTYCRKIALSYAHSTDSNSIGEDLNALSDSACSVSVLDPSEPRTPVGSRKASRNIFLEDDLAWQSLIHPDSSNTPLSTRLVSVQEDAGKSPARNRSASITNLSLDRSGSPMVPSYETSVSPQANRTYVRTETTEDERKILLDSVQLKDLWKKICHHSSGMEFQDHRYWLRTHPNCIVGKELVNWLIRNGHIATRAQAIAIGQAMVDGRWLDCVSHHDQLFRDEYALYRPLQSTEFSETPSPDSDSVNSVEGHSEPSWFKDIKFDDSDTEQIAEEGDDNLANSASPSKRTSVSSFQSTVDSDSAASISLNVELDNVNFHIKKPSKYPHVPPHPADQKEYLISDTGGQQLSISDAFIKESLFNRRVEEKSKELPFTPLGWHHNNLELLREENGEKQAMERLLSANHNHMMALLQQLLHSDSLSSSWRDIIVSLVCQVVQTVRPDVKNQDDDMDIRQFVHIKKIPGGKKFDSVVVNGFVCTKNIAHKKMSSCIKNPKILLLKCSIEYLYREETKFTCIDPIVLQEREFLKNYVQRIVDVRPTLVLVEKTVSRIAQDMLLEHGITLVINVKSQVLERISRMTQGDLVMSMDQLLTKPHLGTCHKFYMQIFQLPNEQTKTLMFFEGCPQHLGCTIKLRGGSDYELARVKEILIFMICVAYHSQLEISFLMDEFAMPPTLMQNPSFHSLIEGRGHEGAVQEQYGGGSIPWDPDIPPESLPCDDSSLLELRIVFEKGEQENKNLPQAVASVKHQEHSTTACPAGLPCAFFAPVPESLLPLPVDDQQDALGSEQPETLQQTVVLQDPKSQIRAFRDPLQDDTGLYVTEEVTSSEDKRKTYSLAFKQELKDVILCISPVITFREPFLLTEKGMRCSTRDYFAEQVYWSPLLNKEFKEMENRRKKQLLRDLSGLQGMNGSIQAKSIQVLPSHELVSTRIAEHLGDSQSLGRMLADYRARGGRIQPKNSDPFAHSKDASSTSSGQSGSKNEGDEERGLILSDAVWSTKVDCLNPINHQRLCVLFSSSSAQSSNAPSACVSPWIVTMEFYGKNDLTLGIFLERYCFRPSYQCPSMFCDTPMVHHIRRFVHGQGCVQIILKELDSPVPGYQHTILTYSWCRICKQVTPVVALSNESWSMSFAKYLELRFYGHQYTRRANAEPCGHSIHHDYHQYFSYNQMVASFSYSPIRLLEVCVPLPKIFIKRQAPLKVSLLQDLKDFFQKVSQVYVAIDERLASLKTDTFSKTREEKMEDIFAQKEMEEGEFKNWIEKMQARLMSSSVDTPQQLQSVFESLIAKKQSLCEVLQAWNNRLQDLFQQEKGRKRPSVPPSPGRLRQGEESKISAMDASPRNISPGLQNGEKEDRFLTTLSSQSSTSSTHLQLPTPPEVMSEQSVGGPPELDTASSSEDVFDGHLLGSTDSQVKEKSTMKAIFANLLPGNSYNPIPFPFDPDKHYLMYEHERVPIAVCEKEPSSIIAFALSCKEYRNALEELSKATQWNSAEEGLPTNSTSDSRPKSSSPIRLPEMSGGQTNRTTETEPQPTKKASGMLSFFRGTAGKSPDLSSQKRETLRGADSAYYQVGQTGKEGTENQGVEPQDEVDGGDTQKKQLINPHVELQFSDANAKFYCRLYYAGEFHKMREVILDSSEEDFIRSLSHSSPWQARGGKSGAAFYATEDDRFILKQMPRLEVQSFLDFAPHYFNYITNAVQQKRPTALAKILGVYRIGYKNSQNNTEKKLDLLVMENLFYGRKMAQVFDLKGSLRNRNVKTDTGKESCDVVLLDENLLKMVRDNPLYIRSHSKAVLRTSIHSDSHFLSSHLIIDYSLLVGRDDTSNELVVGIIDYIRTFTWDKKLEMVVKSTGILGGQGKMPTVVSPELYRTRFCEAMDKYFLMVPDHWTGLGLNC

SMILES	IC50 (PIKfyve; Tables 1-4 and text)	further results
C(#Cc1snc2cccnc12)c1cccnc1 [Compound 2a, 3-(Pyridin-3-ylethynyl)isothiazolo[4,3-b]pyridine]	1150 nM	
Cc1ccccc1-c1cnc2c(C#Cc3cccnc3)snc2c1 [Compound 3c, 3-(Pyridin-3-ylethynyl)-6-(2-tolyl)isothiazolo[4,3-b]pyridine]	8.2 nM	IC50 (PIKfyve; values given in text in nM): 8 nM
CN(C)c1ccc(-c2cnc3c(C#Cc4cccnc4)snc3c2)cc1 [Compound 3d, N,N-Dimethyl-4-(3-(pyridin-3-ylethynyl)isothiazolo[4,3-b]pyridin-6-yl)aniline]	2.2 nM	
CC(C)Oc1ccc(-c2cnc3c(C#Cc4cccnc4)snc3c2)cc1 [Compound 3e, 6-(4-Isopropoxyphenyl)-3-(pyridin-3-ylethynyl)isothiazolo[4,3-b]pyridine]	20 nM	
Fc1ccccc1-c1cnc2c(C#Cc3cccnc3)snc2c1 [Compound 3h, 6-(2-Fluorophenyl)-3-(pyridin-3-ylethynyl)isothiazolo[4,3-b]pyridine]	8.8 nM	CC50 [1]: > 20000 nM; EC50 (VEEV (TC-83)): 6930 ± 130 nM; EC50 (SARS-CoV-2): 1340 ± 500 nM; VEEV (TC-83) CC50 (U-87 MG cells): >20000 nM
COCCOc1ccc(-c2cnc3c(C#Cc4cccnc4)snc3c2)cc1 [Compound 3j, 6-(4-(2-Methoxyethoxy)phenyl)-3-(pyridin-3-ylethynyl)isothiazolo[4,3-b]pyridine]	2.1 nM	
CCNC(=O)c1ccc(-c2cnc3c(C#Cc4cccnc4)snc3c2)cc1 [Compound 3n, N-Ethyl-4-(3-(pyridin-3-ylethynyl)isothiazolo[4,3-b]pyridin-6-yl)benzamide]	3.5 nM	
CN(C)C(=O)c1ccc(-c2cnc3c(C#Cc4cccnc4)snc3c2)cc1 [Compound 3o, N,N-Dimethyl-4-(3-(pyridin-3-ylethynyl)isothiazolo[4,3-b]pyridin-6-yl)benzamide]	25 nM	
O=C(c1ccc(-c2cnc3c(C#Cc4cccnc4)snc3c2)cc1)N1CCCC1 [Compound 3p, (4-(3-(Pyridin-3-ylethynyl)isothiazolo[4,3-b]pyridin-6-yl)phenyl)(pyrrolidin-1-yl)methanone]	20 nM	
CN(C)C(=O)c1cccc(-c2cnc3c(C#Cc4cccnc4)snc3c2)c1 [Compound 3q, N,N-Dimethyl-3-(3-(pyridin-3-ylethynyl)isothiazolo[4,3-b]pyridin-6-yl)benzamide]	18 nM	
O=C(c1cccc(-c2cnc3c(C#Cc4cccnc4)snc3c2)c1)N1CCCC1 [Compound 3r, (3-(3-(Pyridin-3-ylethynyl)isothiazolo[4,3-b]pyridin-6-yl)phenyl)(pyrrolidin-1-yl)methanone]	6.1 nM	
C(#Cc1snc2cc(-c3ccc(OCCN4CCOCC4)cc3)cnc12)c1cccnc1 [Compound 5a, 4-(2-(4-(3-(Pyridin-3-ylethynyl)isothiazolo[4,3-b]pyridin-6-yl)phenoxy)ethyl)morpholine]	7.1 nM	CC50 [1]: > 20000 nM; EC50 (VEEV (TC-83)): 310 ± 10 nM; EC50 (SARS-CoV-2): 5630 ± 970 nM; VEEV (TC-83) CC50 (U-87 MG cells): >10000 nM
CCCC#Cc1snc2cc(-c3ccc(OC)c(OC)c3)cnc12 [Compound 7a, 6-(3,4-Dimethoxyphenyl)-3-(pent-1-yn-1-yl)isothiazolo[4,3-b]pyridine]	850 nM	fold less potent on PIKfyve relative to RMC-113 (PIKfyve; ratio of IC50 values): 100 fold
COc1ccc(-c2cnc3c(C#Cc4ccccc4)snc3c2)cc1OC [Compound 7b, 6-(3,4-Dimethoxyphenyl)-3-(phenylethynyl)isothiazolo[4,3-b]pyridine]	59 nM	
COc1ccc(-c2cnc3c(C#Cc4ccc(F)cc4)snc3c2)cc1OC [Compound 7c, 6-(3,4-Dimethoxyphenyl)-3-((4-fluorophenyl)ethynyl)isothiazolo[4,3-b]pyridine]	250 nM	
COc1ccc(-c2cnc3c(C#Cc4cccc(Cl)c4)snc3c2)cc1OC [Compound 7d, 6-(3,4-Dimethoxyphenyl)-3-((3-chlorophenyl)ethynyl)isothiazolo[4,3-b]pyridine]	39 nM	
COc1cccc(C#Cc2snc3cc(-c4ccc(OC)c(OC)c4)cnc23)c1 [Compound 7f, 6-(3,4-Dimethoxyphenyl)-3-((3-methoxyphenyl)ethynyl)isothiazolo[4,3-b]pyridine]	21 nM	CC50 [1]: < 10000 nM; EC50 (VEEV (TC-83)): 4790 ± 240 nM; VEEV (TC-83) CC50 (U-87 MG cells): >10000 nM
COc1ccc(-c2cnc3c(C#Cc4ccc(C)nc4)snc3c2)cc1OC [Compound 7g, 6-(3,4-Dimethoxyphenyl)-3-((6-methylpyridin-3-yl)ethynyl)isothiazolo[4,3-b]pyridine]	360 nM	
COc1ccc(C#Cc2snc3cc(-c4ccc(OC)c(OC)c4)cnc23)cn1 [Compound 7h, 6-(3,4-Dimethoxyphenyl)-3-((6-methoxypyridin-3-yl)ethynyl)isothiazolo[4,3-b]pyridine]	590 nM	
COc1ccc(-c2cnc3c(C#Cc4ccc(F)nc4)snc3c2)cc1OC [Compound 7j, 6-(3,4-Dimethoxyphenyl)-3-((6-fluoropyridin-3-yl)ethynyl)isothiazolo[4,3-b]pyridine]	120 nM	

SMILES	IC50 (PIKfyve; Tables 1-4 and text)	further results
COc1ccc(-c2cnc3c(C#Cc4ccc(C(F)(F)F)nc4)snc3c2)cc1OC [Compound 7n, 6-(3,4-Dimethoxyphenyl)-3-((6-(trifluoromethyl)pyridin-3-yl)ethynyl)isothiazolo[4,3-b]pyridine]	680 nM	
CCOc1ncccc1C#Cc1snc2cc(-c3ccc(OC)c(OC)c3)cnc12 [Compound 7s, 6-(3,4-Dimethoxyphenyl)-3-((2-ethoxypyridin-3-yl)ethynyl)isothiazolo[4,3-b]pyridine]	110 nM	
COc1ccc(-c2cnc3c(C#Cc4cc(F)cnc4OC)snc3c2)cc1OC [Compound 7t, 6-(3,4-Dimethoxyphenyl)-3-((5-fluoro-2-methoxypyridin-3-yl)ethynyl)isothiazolo[4,3-b]pyridine]	> 10000 nM	
COc1ccc(C#Cc2snc3cc(-c4ccc(OC)c(OC)c4)cnc23)c(OC)n1 [Compound 7u, 6-(3,4-Dimethoxyphenyl)-3-((2,6-dimethoxypyridin-3-yl)ethynyl)isothiazolo[4,3-b]pyridine]	5670 nM	
COc1ccc(-c2cnc3c(C#Cc4cc(C)cnc4F)snc3c2)cc1OC [Compound 7v, 6-(3,4-Dimethoxyphenyl)-3-((2-fluoro-5-methylpyridin-3-yl)ethynyl)isothiazolo[4,3-b]pyridine]	42 nM	
COc1ccc(-c2cnc3c(C#Cc4ccncc4)snc3c2)cc1OC [Compound 7x, 6-(3,4-Dimethoxyphenyl)-3-(pyridin-4-ylethynyl)isothiazolo[4,3-b]pyridine]	75 nM	
COc1ccc(-c2cnc3c(C#Cc4ccccn4)snc3c2)cc1OC [Compound 7y, 6-(3,4-Dimethoxyphenyl)-3-(pyridin-2-ylethynyl)isothiazolo[4,3-b]pyridine]	30 nM	
COc1ccc(-c2cnc3c(C#CCNC(=O)c4ccccc4)snc3c2)cc1OC [Compound 11a, N-(3-(6-(3,4-Dimethoxyphenyl)isothiazolo[4,3-b]pyridin-3-yl)prop-2-yn-1-yl)benzamide]	2040 nM	
COc1ccc(-c2cnc3c(C#CCNS(=O)(=O)c4ccccc4)snc3c2)cc1OC [Compound 11b, N-(3-(6-(3,4-Dimethoxyphenyl)isothiazolo[4,3-b]pyridin-3-yl)prop-2-yn-1-yl)benzenesulfonamide]	1840 nM	
COc1ccc(-c2cnc3c(C#CCNC(=O)Nc4ccccc4)snc3c2)cc1OC [Compound 11c, 1-(3-(6-(3,4-Dimethoxyphenyl)isothiazolo[4,3-b]pyridin-3-yl)prop-2-yn-1-yl)-3-phenylurea]	> 10000 nM	
COc1ccc(-c2cnc3c(C#CCNc4ccccc4)snc3c2)cc1OC [Compound 13, N-(3-(6-(3,4-Dimethoxyphenyl)isothiazolo[4,3-b]pyridin-3-yl)prop-2-yn-1-yl)aniline]	184 nM	
COc1ccc(-c2cnc3c(NCc4cccnc4)snc3c2)cc1OC [Compound 15, 6-(3,4-Dimethoxyphenyl)-N-(pyridin-3-ylmethyl)isothiazolo[4,3-b]pyridin-3-amine]	> 10000 nM	PIKfyve inhibition in words (PIKfyve): practically inactive
COc1ccc(-c2cnc3c(-c4cccnc4)snc3c2)cc1OC [Compound 17, 6-(3,4-Dimethoxyphenyl)-3-(pyridin-3-yl)isothiazolo[4,3-b]pyridine]	602 nM	
COc1ccc(-c2cnc3c(NC(=O)c4cccnc4)snc3c2)cc1OC [Compound 20, N-(6-(3,4-Dimethoxyphenyl)isothiazolo[4,3-b]pyridin-3-yl)nicotinamide]	4290 nM	PIKfyve inhibition in words (PIKfyve): practically inactive
COc1ccc(-c2cnc3c(CCc4cccnc4)snc3c2)cc1OC [Compound 22, 6-(3,4-Dimethoxyphenyl)-3-(2-(pyridin-3-yl)ethyl)isothiazolo[4,3-b]pyridine]	33 nM	
CO/C(=C\c1snc2cc(-c3ccc(OC)c(OC)c3)cnc12)c1cccnc1 [Compound 23a, (Z)-6-(3,4-Dimethoxyphenyl)-3-(2-methoxy-2-(pyridin-3-yl)vinyl)isothiazolo[4,3-b]pyridine]	525 nM	
COc1ccc(-c2cnc3c(/C=C(\OCCN(C)C)c4cccnc4)snc3c2)cc1OC [Compound 23b]	309 nM	
COc1ccc(-c2cnc3c(/C=C(/c4cccnc4)N4CCOCC4)snc3c2)cc1OC [Compound 23c, (Z)-4-(2-(6-(3,4-Dimethoxyphenyl)isothiazolo[4,3-b]pyridin-3-yl)-1-(pyridin-3-yl)vinyl)morpholine]	613 nM	
COc1ccc(-c2cnc3c(/C=C(\SCCO)c4cccnc4)snc3c2)cc1OC [Compound 23d, (Z)-2-((2-(6-(3,4-Dimethoxyphenyl)isothiazolo[4,3-b]pyridin-3-yl)-1-(pyridin-3-yl)vinyl)thio)ethan-1-ol]	1540 nM	
